Experimental findings from US8921373B2, “Compounds having TRPV1 antagonistic activity and uses thereof” (Shionogi & Co., Ltd., priority 2010, dated 2014) are described below.

A short description of data set [1]: Measurement of body temperature increase (rectal body temperature). The format is in vivo, rat. The conditions noted are these: Crl/SD rats, oral; for Body temperature increase: 1 mg/mL at 10 mL/kg. How it is done:
Test Animals: Selection of rats (Crl/SD rats, 7 weeks, male) for this study was based on rectal body temperature measured during the morning of the day of dosing. In addition, animals selected for this study were acclimated to both the rectal measurement procedure and to being handled and dosed to minimize spontaneous, stress-induced, increases in body temperature. The study was conducted in the animal care laboratories where the room temperature and humidity were kept. The rats were free to move and food and water during the study. Each rat was numbered with color line on the tail, housed in each cage and permitted the normal range of movement. Immediately before each body temperature was measured, they transferred to a single cage at each measurement. To reduce stress which affected the body temperature, the rats were covered with towels at the measurement. The thermistor probe was then carefully inserted into the rectum of each rat and left in place until the value on the digital display had stabilized.
Assays: On the day before dosing, rectal body temperatures were measured at 9:00, 10:00, 11:00, 12:30, 13:30, 14:30 and 15:30 to familiarize the animals with the measurement procedure prior to administration of the test or control treatments. The rats were also dosed by oral gavage without vehicle at 12:30 to acclimate and familiarized the animals with the handling and dosing procedure.
On the day of dosing, only rats whose rectal body temperatures were within the range of 37.0° C. to 37.7° C. were selected for this study. Rectal body temperatures were measured at 9:00, 10:00 and 11:00. Rats whose rectal body temperatures were over 37.9° C. at 10:00, and were outside the range of 37.0° C. to 37.7° C. at 11:00 were excluded from the study. The selected rats were divided to several groups based on their rectal body temperatures at 11:00. Rectal body temperatures of the selected rats were measured again at 12:30, and any rats whose rectal body temperature was 38.0° C. or greater were excluded from the study.
Following the group assignment, test compounds or vehicle was administrated to the rats. Each test compound was dissolved in 0.5% methylcellurose and the final concentration of the compound was adjusted to 1 mg/mL. Test compound was orally administrated in a volume 10 mL/kg once. 10 mL/kg of vehicle (0.5% methylcellurose) was administered to the vehicle group. The rectal body temperatures were measured 0.5, 1 and 2 hrs after the administration. The study was conducted in the animal care laboratories where the room temperature and humidity were kept.
Body temperature increase (ΔTb) was calculated from the difference from an average of the vehicle group at each time point.

The target of data set [2] is T1, human recombinant TRPV1 (Homo sapiens (Human), UniProt Q8NER1). Put plainly: TRPV1 pH-Based Assay (Protocol 2, Ca2+ response in TRPV1/CHO cells, Fura-2). The format is cell-based. The method, boiled down: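 CHO cells stably expressing human TRPV1, Fura-2 loaded, given compound (1% DMSO in 10× stock) before acid challenge to final pH 5.0-5.1 (3.2 or 3.3 mM H2SO4). 340/380 nm ratio recorded at 0.5 Hz; maximal ratio after agonist addition versus 16-point baseline used as response.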

For data set [3], the target named is T1, human recombinant TRPV1. The data set is described as follows: TRPV1 Capsaicin-Based Assay (Protocol 2, TRPV1/CHO cells, Fluo-4, FLIPR). The format is cell-based. The method, then: For Protocol 2, a Chinese Hamster Ovary cell line (CHO) that has been engineered to constitutively express human recombinant TRPV1 was used (TRPV1/CHO cells). The TRPV1/CHO cell line was generated as described below.
One day prior to assay, TRPV1/CHO cells were seeded in 96-well clear-bottom black plates (20,000 cells/well) in growth media. On the day of the experiment, the cells were washed with 0.2 mL 1× Hank's Balanced Salt Solution (Life Technologies) containing 1.6 mM CaCl2 and 20 mM HEPES, pH 7.4 (“wash buffer”). Subsequently, the cells were loaded by incubation in 0.1 mL of wash buffer containing Fluo-4 at 3 μM final concentration. After 1 hour, the cells were washed twice with 0.2 mL wash buffer and resuspended in 0.1 mL wash buffer. The plates were then transferred to a Fluorescence Imaging Plate Reader (Molecular Devices). Fluorescence intensity was monitored for 15 seconds to establish a baseline. Subsequently, test compounds diluted in assay buffer (1× Hank's Balanced Salt Solution containing 1 mM CaCl2 and 20 mM HEPES, pH 7.4) containing 1% DMSO were added to the cell plate and fluorescence was monitored for 2 minutes. […] Human TRPV1 was then activated by the addition of 50 μL capsaicin (100 nM final concentration) and plates incubated for an additional 3 min. Data were collected over the entire time course and analyzed using Excel and the curve-fitting formula GraphPad Prism.

Where [4] appears, read: TRPV1/CHO cells, pH 5.0-5.1, read-out: IC50 value by the pH-Based Assay.
Setting [5] is: TRPV1/CHO cells, capsaicin 100 nM final, read-out: IC50 value by the Capsaicin-Based Assay.

T1 sequence (Q8NER1 whole entry): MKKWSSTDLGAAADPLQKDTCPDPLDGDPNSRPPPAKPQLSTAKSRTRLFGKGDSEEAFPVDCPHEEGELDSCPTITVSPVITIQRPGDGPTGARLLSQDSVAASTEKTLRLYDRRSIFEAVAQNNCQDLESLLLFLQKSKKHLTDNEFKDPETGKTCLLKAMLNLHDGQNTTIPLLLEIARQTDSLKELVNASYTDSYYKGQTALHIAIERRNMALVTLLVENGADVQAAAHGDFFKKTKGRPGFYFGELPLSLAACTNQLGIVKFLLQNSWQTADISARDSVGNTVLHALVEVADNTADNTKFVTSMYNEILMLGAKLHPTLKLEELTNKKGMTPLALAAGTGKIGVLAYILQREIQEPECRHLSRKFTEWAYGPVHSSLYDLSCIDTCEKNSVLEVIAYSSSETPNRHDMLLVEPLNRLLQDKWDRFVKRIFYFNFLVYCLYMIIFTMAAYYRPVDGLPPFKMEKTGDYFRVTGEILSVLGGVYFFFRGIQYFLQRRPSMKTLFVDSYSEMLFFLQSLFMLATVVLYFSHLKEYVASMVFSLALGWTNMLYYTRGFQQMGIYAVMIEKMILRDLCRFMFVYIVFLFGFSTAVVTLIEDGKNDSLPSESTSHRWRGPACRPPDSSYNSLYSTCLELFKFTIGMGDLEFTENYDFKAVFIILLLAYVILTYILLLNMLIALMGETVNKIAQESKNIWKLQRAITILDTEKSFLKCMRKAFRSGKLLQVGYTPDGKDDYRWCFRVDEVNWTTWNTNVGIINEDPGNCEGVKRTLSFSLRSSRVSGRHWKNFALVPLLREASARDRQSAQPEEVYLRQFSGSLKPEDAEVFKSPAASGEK

For `O=C(Nc1ccc(C(F)(F)F)c(Cl)c1)N1CC=C(c2ncc(C[C@H](O)CO)cc2Cl)CC1` [AAF, (S)-N-(3-Chloro-4-(trifluoromethyl)phenyl)-4-(3-chloro-5-(2,3-dihydroxypropyl)pyridin-2-yl)-5,6-dihydropyridine-1(2H)-carboxamide], the Body temperature increase result in data set [1] is “less than 0.5 °C”. On human recombinant TRPV1 [2] (setting [4]), the IC50 is ≤ 50 nM. As for `O=C(Nc1ccc(C(F)(F)F)c(Cl)c1)N1CC=C(c2ncc(C[C@@H](O)CO)cc2Cl)CC1` [AAK, (R)-N-(3-Chloro-4-(trifluoromethyl)phenyl)-4-(3-chloro-5-(2,3-dihydroxypropyl)pyridin-2-yl)-5,6-dihydropyridine-1(2H)-carboxamide], the Body temperature increase entry in data set [1] was “less than 0.5 °C”. Further, the IC50 on human recombinant TRPV1 [2] (setting [4]) is ≤ 50 nM. For `COc1cc(NC(=O)N2CC=C(c3ncc(C[C@@H](O)CO)cc3Cl)CC2)ccc1C(F)(F)F` [AAM, (R)-4-(3-Chloro-5-(2,3-dihydroxypropyl)pyridin-2-yl)-N-(3-methoxy-4-(trifluoromethyl)phenyl)-5,6-dihydropyridine-1(2H)-carboxamide], in that order: “less than 0.5 °C” and ≤ 50 nM.

Take `Cc1cc(NC(=O)N2CC=C(c3ncc(C[C@@H](O)CO)cc3Cl)CC2)ccc1C(F)(F)F` [AAW, (R)-4-(3-Chloro-5-(2,3-dihydroxypropyl)pyridin-2-yl)-N-(3-methyl-4-(trifluoromethyl)phenyl)-5,6-dihydropyridine-1(2H)-carboxamide]: the Body temperature increase entry in data set [1] is “less than 0.5 °C”. Further, the IC50 at human recombinant TRPV1 [2] (setting [4]) is ≤ 50 nM. As to `Cc1cc(NC(=O)N2CC=C(c3ncc(C[C@H](O)CO)cc3F)CC2)ccc1OC(F)(F)F` [ABZ, (S)-5-(2,3-dihydroxypropyl)-3-fluoro-N-(3-methyl-4-(trifluoromethoxy)-phenyl)-5′,6′-dihydro-[2,4′-bipyridine]-1′(2′H)-carboxamide], in data set [1] (1 mg/mL in 0.5% methylcellulose at 10 mL/kg, difference from vehicle group average), the “Body temperature increase ΔTb” value was 0.03 °C. Further, the IC50 at human recombinant TRPV1 [2] (setting [4]) was ≤ 50 nM.

On to `Cc1cc(NC(=O)N2CC=C(c3ncc(C[C@@H](O)CO)cc3F)CC2)ccc1OC(F)(F)F` [ACB, (R)-5-(2,3-dihydroxypropyl)-3-fluoro-N-(3-methyl-4-(trifluoromethoxy)phenyl)-5′,6-dihydro-[2,4′-bipyridine]-1′(2′H)-carboxamide], for which the Body temperature increase entry in data set [1] was “less than 0.5 °C”.

`Cc1cc(NC(=O)N2CC=C(c3ncc(C[C@@H](O)CO)cc3C)CC2)ccc1C(F)(F)F` [ACD, (R)-4-(5-(2,3-dihydroxypropyl)-3-methylpyridin-2-yl)-N-(3-methyl-4-(trifluoromethyl)phenyl)-5,6-dihydropyridine-1(2H)-carboxamide]: the Body temperature increase result in data set [1] is “less than 0.5 °C”. The same measure, in the same setting: the entry for `Cc1cc(NC(=O)N2CC=C(c3ncc(C[C@H](O)CO)cc3C)CC2)ccc1OC(F)(F)F` [ACK, (S)-4-(5-(2,3-dihydroxypropyl)-3-methylpyridin-2-yl)-N-(3-methyl-4-(trifluoromethoxy)phenyl)-5,6-dihydropyridine-1(2H)-carboxamide] is “less than 0.5 °C”. Same read-out and setting: the entry for `Cc1cc(NC(=O)N2CC=C(c3ncc(C[C@H](O)CO)cc3C)CC2)ccc1C(F)(F)F` [ACL, (S)-4-(5-(2,3-dihydroxypropyl)-3-methylpyridin-2-yl)-N-(3-methyl-4-(trifluoromethyl)phenyl)-5,6-dihydropyridine-1(2H)-carboxamide] is “less than 0.5 °C”.

Consider `C[C@H]1CN(c2ncc(C[C@H](O)CO)cc2Cl)CCN1C(=O)Nc1nc2ccc(F)cc2s1` [AEB], for which the IC50 on human recombinant TRPV1 [2] (setting [4]) and at human recombinant TRPV1 [3] (setting [5]) was ≤ 50 nM in each case. Regarding `Cc1ccc2nc(NC(=O)N3CCN(c4ncc(C[C@H](O)CO)cc4Cl)C[C@@H]3C)sc2c1` [AEC], the IC50 on human recombinant TRPV1 [2] (setting [4]) and on human recombinant TRPV1 [3] (setting [5]) was ≤ 50 nM each time. For `C[C@H]1CN(c2ncc(C[C@H](O)CO)cc2Cl)CCN1C(=O)Nc1nc2ccccc2s1` [AED], the IC50 at human recombinant TRPV1 [2] (setting [4]) and at human recombinant TRPV1 [3] (setting [5]) was ≤ 50 nM throughout.

As to `C[C@H]1CN(c2ncc(C[C@@H](O)CO)cc2Cl)CCN1C(=O)Nc1nc2ccc(Cl)cc2s1` [AEE], the IC50 at human recombinant TRPV1 [2] (setting [4]) and on human recombinant TRPV1 [3] (setting [5]) was ≤ 50 nM each time. As for `O=C(Nc1nc2ccc(F)cc2s1)N1CCC(F)(c2ncc(C[C@@H](O)CO)cc2Cl)CC1` [AEF, (R)-4-(3-chloro-5-(2,3-dihydroxypropyl)pyridin-2-yl)-4-fluoro-N-(6-fluorobenzo[d]thiazol-2-yl)piperidine-1-carboxamide], the Body temperature increase entry in data set [1] was “less than 0.5 °C”. Take `Cc1cc2nc(NC(=O)N3CCN(c4ncc(C[C@@H](O)CO)cc4Cl)CC3)sc2cc1C` [AEH]: the IC50 on human recombinant TRPV1 [2] (setting [4]) and at human recombinant TRPV1 [3] (setting [5]) was ≤ 50 nM in each case.

Take `C[C@H]1CN(c2ncc(C[C@@H](O)CO)cc2F)CCN1C(=O)Nc1nc2ccc(Cl)cc2s1` [AEK]: the IC50 on human recombinant TRPV1 [2] (setting [4]) and on human recombinant TRPV1 [3] (setting [5]) was ≤ 50 nM each time.

Turning to `C[C@H]1CN(c2ncc(C[C@H](O)CO)cc2F)CCN1C(=O)Nc1nc2ccc(Cl)cc2s1` [AEN], the IC50 on human recombinant TRPV1 [2] (setting [4]) and at human recombinant TRPV1 [3] (setting [5]) was ≤ 50 nM in each case.

In the case of `Cc1ccc2nc(NC(=O)N3CCN(c4ncc(C[C@H](O)CO)cc4F)C[C@@H]3C)sc2c1` [AEP], the IC50 at human recombinant TRPV1 [2] (setting [4]) and on human recombinant TRPV1 [3] (setting [5]) was ≤ 50 nM throughout. Turning to `C[C@H]1CN(c2ncc(C[C@@H](O)CO)cc2F)CCN1C(=O)Nc1nc2cc(F)c(F)cc2s1` [AEY], the IC50 on human recombinant TRPV1 [2] (setting [4]) and at human recombinant TRPV1 [3] (setting [5]) was ≤ 50 nM throughout. `O=C(Nc1nc2cc(F)c(F)cc2s1)N1CCN(c2ncc(C[C@H](O)CO)cc2F)CC1` [AFB]: the IC50 at human recombinant TRPV1 [2] and at human recombinant TRPV1 [3] was ≤ 50 nM throughout. Regarding `C[C@H]1CN(C(=O)Nc2nc3ccc(Cl)cc3s2)CCN1c1ncc(C[C@@H](O)CO)cc1F` [AFR], the IC50 at human recombinant TRPV1 [2] (setting [4]) and on human recombinant TRPV1 [3] (setting [5]) was ≤ 50 nM throughout. As for `C[C@H]1CN(C(=O)Nc2nc3cc(F)c(F)cc3s2)CCN1c1ncc(C[C@@H](O)CO)cc1F` [AFS], the IC50 at human recombinant TRPV1 [2] (setting [4]) and on human recombinant TRPV1 [3] (setting [5]) was ≤ 50 nM each time. On to `CC1(C)CN(c2ncc(C[C@H](O)CO)cc2F)CCN1C(=O)Nc1nc2ccc(F)cc2s1` [AFT], for which the IC50 at human recombinant TRPV1 [2] (setting [4]) and on human recombinant TRPV1 [3] (setting [5]) was ≤ 50 nM in each case. Take `CC1(C)CN(c2ncc(C[C@@H](O)CO)cc2F)CCN1C(=O)Nc1nc2ccc(F)cc2s1` [AFZ]: the IC50 on human recombinant TRPV1 [2] (setting [4]) and on human recombinant TRPV1 [3] (setting [5]) was ≤ 50 nM each time.

On to `C[C@H]1CN(C(=O)Nc2nc3ccc(Cl)cc3s2)CCN1c1ncc(C[C@H](O)CO)cc1F` [AGK], for which the IC50 on human recombinant TRPV1 [2] (setting [4]) and at human recombinant TRPV1 [3] (setting [5]) was ≤ 50 nM throughout. For `C[C@H]1CN(c2ncc(C[C@H](O)CO)cc2C(F)(F)F)CCN1C(=O)Nc1nc2ccc(F)cc2s1` [AGW], the IC50 at human recombinant TRPV1 [2] (setting [4]) and on human recombinant TRPV1 [3] (setting [5]) was ≤ 50 nM in each case.

`C[C@H]1CN(c2ncc(C[C@H](O)CO)cc2C(F)(F)F)CCN1C(=O)Nc1nc2ccccc2s1` [AGY]: the IC50 on human recombinant TRPV1 [2] (setting [4]) and on human recombinant TRPV1 [3] (setting [5]) was ≤ 50 nM each time. Turning to `C[C@@H]1CN(c2ncc(C[C@H](O)CO)cc2F)CCN1C(=O)Nc1nc2ccc(F)cc2s1` [AGZ], the IC50 at human recombinant TRPV1 [2] (setting [4]) and on human recombinant TRPV1 [3] (setting [5]) was ≤ 50 nM throughout.
